Laboratory results taken from paper PMC9014410, “Discovery of V-0219: A Small-Molecule Positive Allosteric Modulator of the Glucagon-Like Peptide-1 Receptor toward Oral Treatment for “Diabesity”” (Journal of Medicinal Chemistry, 2022).
Each block holds one molecule with its values, some of them ahead of it.

Assays:
[1] = tested on: INS-1 β-cells; assay: Insulin secretion by rat INS-1 / INS-1E insulinoma cells; format: cell-based; conditions: INS-1E cells, 0.5 mM glucose, single representative experiment
Procedure: The incubation was done using two types of culture media, defined as low glucose (0.5–3 mM) and high glucose (15 mM). […] Incubation with compounds lasted 30 min, and then the media was collected, centrifuged at 4 °C for 2 min until assayed for insulin using commercial ELISA kit.

[2] = tested on: EndoC-βH1 cells; assay: Insulin secretion by human pancreatic EndoC-βH1 cells; format: cell-based; conditions: high glucose concentration
Procedure: Both cell lines were cultured in RPMI 1640 medium supplemented with 10% fetal calf serum as described. Cell monolayers were incubated at 37 °C in a 7.5% CO2 atmosphere. For insulin secretion studies, cells were detached, washed once with glucose-free medium and placed in 48 multiwell plates (100,000 cells per well) and kept in glucose-free medium for 1.5 h prior to incubation with drugs. The incubation was done using two types of culture media, defined as low glucose (0.5–3 mM) and high glucose (15 mM). […] Incubation with compounds lasted 30 min, and then the media was collected, centrifuged at 4 °C for 2 min until assayed for insulin using commercial ELISA kit.

[3] = molecular target: hGLP-1R (Homo sapiens, UniProt P43220); assay: cAMP accumulation in HEK-293 cells expressing hGLP-1R (HEK-GLP-1 cells); format: cell-based; conditions: HEK293, read-out: Potentiation of GLP-1 Emax at 10 ?M in a cAMP assay (%); 10 ?M compound (supplementary csv)
Procedure: After this time the culture medium was replaced by 20 μL fresh Opti-MEM containing 500 μM IBMX and 100 μM K579 and incubated with gentle stirring for 10 min at rt. […] Concentration-response curves were fitted to a 4-parameter logistic equation by using GraphPad Prism 2.1 software.

Sequence of hGLP-1R (P43220 24-463): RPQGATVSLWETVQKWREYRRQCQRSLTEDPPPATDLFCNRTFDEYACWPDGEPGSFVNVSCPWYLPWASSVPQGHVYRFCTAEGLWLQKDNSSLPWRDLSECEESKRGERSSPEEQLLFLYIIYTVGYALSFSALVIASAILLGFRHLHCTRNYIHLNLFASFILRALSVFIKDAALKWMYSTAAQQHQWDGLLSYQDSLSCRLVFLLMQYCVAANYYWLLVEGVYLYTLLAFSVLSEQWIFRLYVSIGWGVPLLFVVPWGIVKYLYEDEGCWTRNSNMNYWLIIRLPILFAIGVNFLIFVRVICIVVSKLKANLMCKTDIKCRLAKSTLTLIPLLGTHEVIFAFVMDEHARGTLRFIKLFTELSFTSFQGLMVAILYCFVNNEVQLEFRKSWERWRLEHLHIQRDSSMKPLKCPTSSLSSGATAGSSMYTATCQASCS

Compound: CC[C@H](C)[C@H](NC(=O)[C@H](Cc1ccccc1)NC(=O)[C@H](CCC(=O)O)NC(=O)[C@H](CCCCN)NC(=O)[C@H](C)NC(=O)[C@H](C)NC(=O)[C@H](CCC(N)=O)NC(=O)CNC(=O)[C@H](CCC(=O)O)NC(=O)[C@H](CC(C)C)NC(=O)[C@H](Cc1ccc(O)cc1)NC(=O)[C@H](CO)NC(=O)[C@H](CO)NC(=O)[C@@H](NC(=O)[C@H](CC(=O)O)NC(=O)[C@H](CO)NC(=O)[C@@H](NC(=O)[C@H](Cc1ccccc1)NC(=O)[C@@H](NC(=O)CNC(=O)[C@H](CCC(=O)O)NC(=O)[C@H](C)NC(=O)[C@@H](N)Cc1c[nH]cn1)[C@@H](C)O)[C@@H](C)O)C(C)C)C(=O)N[C@@H](C)C(=O)N[C@@H](Cc1c[nH]c2ccccc12)C(=O)N[C@@H](CC(C)C)C(=O)N[C@H](C(=O)N[C@@H](CCCCN)C(=O)NCC(=O)N[C@@H](CCCNC(=N)N)C(N)=O)C(C)C [GLP-1, GLP-1(7-36)-NH2, reference compound]
Insulin secreted ([1]; 0.1 nM test substance): 25 ng/mL
Insulin secreted ([1]; 1 nM test substance): 28 ng/mL
Insulin secreted ([1]; 10 nM test substance): 34 ng/mL
Insulin secreted ([1]; 100 nM test substance): 32 ng/mL

melting point: 187 to 188 °C
Compound: Cl.NC(=O)C1CCN(Cc2nc(-c3ccc(C(F)(F)F)cc3)no2)CC1 [compound 7, 1-({3-[4-(Trifluoromethyl)phenyl]-1,2,4-oxadiazol-5-yl}methyl)piperidine-4-carboxamide]

Compound: FC(F)(F)c1ccc(-c2noc(CN3CCC[C@H](CN4CCOCC4)C3)n2)cc1 [(R)-9, (−)-4-{[(3R)-1-({3-[4-(Trifluoromethyl)phenyl]-1,2,4-oxadiazol-5-yl}methyl)piperidin-3-yl]methyl}morpholine]
potentiation of insulin secretion stimulated by GLP-1 (in words) [2]: similarly potentiate insulin secretion stimulated by GLP-1
Insulin secreted ([1]; 0.1 nM test substance): 19 ng/mL
Insulin secreted ([1]; 1 nM test substance): 31 ng/mL
Insulin secreted ([1]; 10 nM test substance): 39 ng/mL

Emax [3]: < 30%
Compound: O=C(NS(=O)(=O)c1cccc(Cl)c1)C1CCN(Cc2nc(-c3ccc(C(F)(F)F)cc3)no2)CC1 [S45]

Emax [3]: < 30%
Compound: O=C(NS(=O)(=O)c1ccc(OC(F)(F)F)cc1)C1CCN(Cc2nc(-c3ccc(C(F)(F)F)cc3)no2)CC1 [S50]

Emax [3]: < 30%
Compound: O=[N+]([O-])c1ccccc1S(=O)(=O)NCC1CCN(Cc2nc(-c3ccc(C(F)(F)F)cc3)no2)CC1 [S24]

Emax [3]: < 30%
Compound: Fc1ccc(-c2noc(CN3CCCC(CN4CCOCC4)C3)n2)cc1 (stereo not shown) [S78]
